# Measurements: the supplement of paper PMC10307832
# Assays:
# Experiment in all cases: relative viability (nuclei count vs DMSO), 5 days (fraction); higher = more cells survive
# Tanzisertib + Lapatinib = compound: O[C@H]1CC[C@H](Nc2ncc3nc(Nc4c(F)cc(F)cc4F)n([C@H]4CCOC4)c3n2)CC1 [Tanzisertib] + CS(=O)(=O)CCNCc1ccc(-c2ccc3ncnc(Nc4ccc(OCc5cccc(F)c5)c(Cl)c4)c3c2)o1 [Lapatinib] (partner 2 µM)
# Method in brief: (§1)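 A single step with final 0.05% Triton X-100, 1% formaldehyde and 1 ug/ml Hoechst fixed the cells and stained nuclei 5 days after treatment. Lung cancer cell lines in 1536-well plates had been treated by pin tool the day after seeding with one drug alone or a fixed anchor-drug dose plus five library-drug doses (not always all listed) in √10 steps, and nuclei were counted on 4× images. Relative viability is the ratio of nuclei in treated wells to nuclei in vehicle wells, taken as the median of duplicate plates.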
# [1] = compound: C[C@@H](N)c1ccc(C(=O)Nc2ccnc3[nH]ccc23)cc1 + CC(=O)Nc1cccc(-n2c(=O)n(C3CC3)c(=O)c3c(Nc4ccc(I)cc4F)n(C)c(=O)c(C)c32)c1 [Trametinib] (partner 0.02 µM)
# Method in brief: as §1
# [2] = compound: C1CNCCC1C2=CC(=NN2)C3=CC=NC=C3 + Cc1nc(NC(=O)N2CCC[C@H]2C(N)=O)sc1-c1ccnc(C(C)(C)C(F)(F)F)c1 [Alpelisib] (partner 2 µM)
# Method in brief: as §1
# [3] = compound: C[C@@H](N)c1ccc(C(=O)Nc2ccnc3[nH]ccc23)cc1 + O=C(c1cc(Cc2n[nH]c(=O)c3ccccc23)ccc1F)N1CCN(C(=O)C2CC2)CC1 [Olaparib] (partner 8 µM)
# Method in brief: as §1
Cell Line,relative viability (Tanzisertib + Lapatinib; first compound 0.08 µM),relative viability (Tanzisertib + Lapatinib; first compound 0.253 µM),relative viability (Tanzisertib + Lapatinib; first compound 0.8 µM),relative viability (Tanzisertib + Lapatinib; first compound 2.53 µM),relative viability (Tanzisertib + Lapatinib; first compound 8 µM),relative viability ([1]; first compound 0.04 µM),relative viability ([1]; first compound 0.1265 µM),relative viability ([1]; first compound 0.4 µM),relative viability ([1]; first compound 1.265 µM),relative viability ([1]; first compound 4 µM),relative viability ([2]; first compound 0.08 µM),relative viability ([2]; first compound 0.8 µM),relative viability ([2]; first compound 2.53 µM),relative viability ([2]; first compound 8 µM),relative viability ([3]; first compound 0.04 µM),relative viability ([3]; first compound 0.1265 µM),relative viability ([3]; first compound 0.4 µM),relative viability ([3]; first compound 1.265 µM),relative viability ([3]; first compound 4 µM)
HCC-366,0.985,1.06,1.1,1.07,1.03,0.345,0.332,0.388,0.399,0.375,0.561,0.233,0.426,0.378,0.345,0.368,0.371,0.447,0.389
HCC-827,0.19,0.186,0.201,0.24,0.183,,0.703,0.758,0.763,0.653,0.97,0.668,0.916,0.972,,0.764,0.834,0.739,0.542
HOP-62,1.25,0.85,1.06,1.12,0.511,0.425,0.356,0.35,0.377,0.365,0.734,0.933,1.11,0.858,0.43,0.381,0.419,,0.47
IA-LM,0.855,0.732,,1.03,1.03,,,,,,0.834,0.763,0.762,0.837,0.824,0.996,0.914,1.11,0.914
LC-2-ad,0.991,0.978,1.1,0.989,0.868,0.957,0.911,0.883,0.926,0.727,0.791,0.751,0.913,0.934,0.744,0.693,0.646,0.647,0.478
LCLC-97TM1,,0.92,0.696,0.568,0.863,0.211,0.193,0.227,0.259,0.18,0.224,0.205,0.241,0.225,0.416,0.429,0.342,0.526,0.342
LCLC-103H,,,,,,0.715,0.618,0.647,0.616,0.634,1.05,0.966,1.05,1,0.8,0.748,0.769,0.827,0.628
LK-2,1.1,0.895,1.12,0.996,0.977,1.03,0.733,0.694,0.939,0.933,1.09,1.11,1.21,1.24,0.732,0.658,0.746,0.482,0.864
LOU-NH91,0.782,0.775,0.64,0.771,0.716,0.746,0.796,0.739,0.644,0.539,0.698,0.677,0.811,0.749,0.824,0.911,0.875,0.74,0.593
LU99A,1.1,0.934,0.934,1.11,1.2,,0.586,0.52,0.477,0.483,0.545,0.579,0.65,0.566,,0.231,0.253,0.275,0.281
LXF-289,0.99,0.883,0.983,0.926,0.977,0.661,0.676,0.708,0.797,0.588,1.03,0.973,1.06,1,1.12,1.05,1.16,1.23,0.901
NCI-H23,1.4,0.998,0.964,1.05,0.936,0.422,0.427,0.386,,0.483,0.614,0.691,0.713,0.69,0.311,0.335,0.368,,0.3
NCI-H441,,,,,,0.522,0.61,0.478,0.38,0.405,,0.628,0.833,0.708,0.544,0.505,0.539,0.562,0.35
NCI-H522,,,,,,0.798,0.789,0.66,1.02,0.745,,,,,0.591,0.684,0.657,0.658,0.629
NCI-H1299,1.01,0.982,0.989,1.05,1.11,,,,,,1.13,1.22,1.04,1.06,0.91,0.987,0.933,0.878,0.767
NCI-H1563,0.973,0.947,0.967,1.06,1.01,,,,,,0.709,0.932,0.95,0.989,,,,,
NCI-H1648,,,,,,0.57,0.581,0.574,0.266,0.722,,,,,1.01,1.02,1.93,1.71,1.29
NCI-H1650,0.958,0.759,0.838,0.842,0.331,0.579,0.786,0.648,0.554,0.609,,,,,0.81,0.943,0.812,0.822,0.763
NCI-H1703,1.29,1.08,1.09,1.11,0.942,,,,,,0.345,0.268,0.347,0.278,0.374,0.476,0.348,,0.463
NCI-H2342,,,,,,0.91,0.821,0.837,0.746,0.737,,,,,0.454,0.469,0.405,0.481,0.388
SW 900,,,,,,0.888,0.861,1.04,1.14,0.993,,,,,1.03,0.918,1.21,0.883,1.08
